Test results reported in article PMC10824666 (Nature Cancer, 2023).
Where two headings read alike, the source gives them in different places. Each block holds one compound with its values, some of them ahead of it.

How the values were obtained:
Experiment in all cases: biochemical
Parameters in all cases: Eurofins DiscoverX kinase panel, competitive binding assay at 1 uM, percent of DMSO control
Conditions in all cases: competitive binding, percent of DMSO control
Aurora 2 = molecular target: T1, Aurora 2 (Homo sapiens, UniProt O14965)
T1 construct: gene AURKA
T1 sequence (O14965 1-403): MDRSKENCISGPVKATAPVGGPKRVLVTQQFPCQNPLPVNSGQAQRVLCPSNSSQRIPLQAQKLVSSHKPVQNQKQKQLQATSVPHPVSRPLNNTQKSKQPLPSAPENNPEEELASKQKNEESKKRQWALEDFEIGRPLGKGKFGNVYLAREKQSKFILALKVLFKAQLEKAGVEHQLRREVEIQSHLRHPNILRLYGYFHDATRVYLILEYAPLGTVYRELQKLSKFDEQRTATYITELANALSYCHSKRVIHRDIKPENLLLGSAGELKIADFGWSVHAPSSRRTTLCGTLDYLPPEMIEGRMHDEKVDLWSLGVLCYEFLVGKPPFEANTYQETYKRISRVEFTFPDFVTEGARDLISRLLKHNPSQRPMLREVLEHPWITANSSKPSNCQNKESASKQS
Summary of the method: (§1)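 Single-point profiling at 1 µM compound in a competition-binding format against 96 kinases, read out as POC relative to control; n = 1.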

CAMK2D = CAMK2D (Homo sapiens, UniProt Q13557)
CAMK2D, sequence (Q13557 whole entry): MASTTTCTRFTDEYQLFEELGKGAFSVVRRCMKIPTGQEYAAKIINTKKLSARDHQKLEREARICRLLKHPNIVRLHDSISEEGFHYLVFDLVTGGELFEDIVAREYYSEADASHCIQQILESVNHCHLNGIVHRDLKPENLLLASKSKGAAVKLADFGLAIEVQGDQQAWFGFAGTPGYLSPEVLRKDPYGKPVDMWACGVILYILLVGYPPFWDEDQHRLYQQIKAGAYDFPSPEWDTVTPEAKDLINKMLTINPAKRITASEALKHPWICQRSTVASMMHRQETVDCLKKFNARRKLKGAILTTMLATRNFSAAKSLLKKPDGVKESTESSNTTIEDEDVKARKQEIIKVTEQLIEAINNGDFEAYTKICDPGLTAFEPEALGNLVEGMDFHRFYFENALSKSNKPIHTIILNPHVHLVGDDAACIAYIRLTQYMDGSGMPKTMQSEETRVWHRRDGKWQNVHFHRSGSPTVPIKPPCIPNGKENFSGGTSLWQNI
Summary of the method: as §1

CDK8 = CDK8 (Homo sapiens, UniProt P49336)
CDK8, sequence (P49336 whole entry): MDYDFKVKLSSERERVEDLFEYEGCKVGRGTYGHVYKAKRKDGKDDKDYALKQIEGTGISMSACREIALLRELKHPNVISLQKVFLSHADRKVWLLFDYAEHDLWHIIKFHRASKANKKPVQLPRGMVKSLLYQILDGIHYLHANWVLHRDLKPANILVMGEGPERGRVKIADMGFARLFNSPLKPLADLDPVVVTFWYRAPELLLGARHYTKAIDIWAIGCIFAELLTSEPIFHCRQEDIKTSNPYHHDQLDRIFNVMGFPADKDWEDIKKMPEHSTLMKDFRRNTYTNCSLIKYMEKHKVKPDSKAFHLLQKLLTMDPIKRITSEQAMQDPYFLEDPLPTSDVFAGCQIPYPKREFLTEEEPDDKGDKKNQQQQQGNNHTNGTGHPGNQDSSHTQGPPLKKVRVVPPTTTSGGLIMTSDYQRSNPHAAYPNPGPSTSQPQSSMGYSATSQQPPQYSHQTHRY
Summary of the method: as §1

DMPK = molecular target: T2, DMPK (Homo sapiens, UniProt Q09013)
T2 sequence (Q09013 1-629): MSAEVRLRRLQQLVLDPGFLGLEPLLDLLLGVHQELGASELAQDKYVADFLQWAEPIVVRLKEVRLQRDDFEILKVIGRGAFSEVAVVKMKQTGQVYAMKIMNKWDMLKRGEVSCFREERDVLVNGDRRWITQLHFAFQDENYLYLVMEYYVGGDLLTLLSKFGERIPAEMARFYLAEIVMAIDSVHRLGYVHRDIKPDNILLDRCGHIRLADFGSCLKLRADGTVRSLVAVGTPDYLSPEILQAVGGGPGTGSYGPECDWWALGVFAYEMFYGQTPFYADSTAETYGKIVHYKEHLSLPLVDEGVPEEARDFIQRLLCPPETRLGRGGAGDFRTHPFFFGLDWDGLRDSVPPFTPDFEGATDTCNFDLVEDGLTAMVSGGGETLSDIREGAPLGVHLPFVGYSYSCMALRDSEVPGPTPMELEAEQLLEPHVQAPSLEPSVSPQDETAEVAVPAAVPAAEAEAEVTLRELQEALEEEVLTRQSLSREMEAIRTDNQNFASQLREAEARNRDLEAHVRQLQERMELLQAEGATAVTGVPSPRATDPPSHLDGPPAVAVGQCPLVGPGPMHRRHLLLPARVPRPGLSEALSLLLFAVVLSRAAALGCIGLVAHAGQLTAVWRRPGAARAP
Summary of the method: as §1

EPHA2 = EPHA2 (Homo sapiens, UniProt P29317)
EPHA2, sequence (P29317 whole entry): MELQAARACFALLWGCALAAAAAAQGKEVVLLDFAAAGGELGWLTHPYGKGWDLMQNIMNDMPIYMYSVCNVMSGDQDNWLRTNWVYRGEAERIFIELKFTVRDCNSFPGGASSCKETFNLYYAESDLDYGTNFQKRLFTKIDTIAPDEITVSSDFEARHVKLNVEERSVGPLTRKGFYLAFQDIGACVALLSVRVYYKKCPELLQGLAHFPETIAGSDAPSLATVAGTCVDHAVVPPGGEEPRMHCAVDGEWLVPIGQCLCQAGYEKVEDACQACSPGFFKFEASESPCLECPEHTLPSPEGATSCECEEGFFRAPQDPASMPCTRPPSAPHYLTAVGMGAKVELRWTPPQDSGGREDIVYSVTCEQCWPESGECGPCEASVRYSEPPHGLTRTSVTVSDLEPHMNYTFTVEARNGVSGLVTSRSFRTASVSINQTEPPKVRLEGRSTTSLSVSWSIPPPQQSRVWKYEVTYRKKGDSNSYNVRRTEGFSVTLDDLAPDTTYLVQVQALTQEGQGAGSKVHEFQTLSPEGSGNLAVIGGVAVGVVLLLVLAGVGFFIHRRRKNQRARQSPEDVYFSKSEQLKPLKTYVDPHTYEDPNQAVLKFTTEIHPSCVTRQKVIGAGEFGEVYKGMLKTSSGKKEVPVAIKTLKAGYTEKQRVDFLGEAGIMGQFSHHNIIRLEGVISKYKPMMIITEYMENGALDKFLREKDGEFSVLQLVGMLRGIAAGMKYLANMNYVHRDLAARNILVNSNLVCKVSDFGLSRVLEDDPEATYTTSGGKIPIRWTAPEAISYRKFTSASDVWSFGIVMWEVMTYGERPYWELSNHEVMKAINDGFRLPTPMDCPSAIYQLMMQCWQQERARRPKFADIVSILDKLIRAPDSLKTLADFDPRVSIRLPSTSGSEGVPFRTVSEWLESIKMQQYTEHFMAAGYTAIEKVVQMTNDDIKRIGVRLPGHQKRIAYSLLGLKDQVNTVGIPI
Summary of the method: as §1

ERN1 = ERN1 (Homo sapiens, UniProt O75460)
ERN1, sequence (O75460 whole entry): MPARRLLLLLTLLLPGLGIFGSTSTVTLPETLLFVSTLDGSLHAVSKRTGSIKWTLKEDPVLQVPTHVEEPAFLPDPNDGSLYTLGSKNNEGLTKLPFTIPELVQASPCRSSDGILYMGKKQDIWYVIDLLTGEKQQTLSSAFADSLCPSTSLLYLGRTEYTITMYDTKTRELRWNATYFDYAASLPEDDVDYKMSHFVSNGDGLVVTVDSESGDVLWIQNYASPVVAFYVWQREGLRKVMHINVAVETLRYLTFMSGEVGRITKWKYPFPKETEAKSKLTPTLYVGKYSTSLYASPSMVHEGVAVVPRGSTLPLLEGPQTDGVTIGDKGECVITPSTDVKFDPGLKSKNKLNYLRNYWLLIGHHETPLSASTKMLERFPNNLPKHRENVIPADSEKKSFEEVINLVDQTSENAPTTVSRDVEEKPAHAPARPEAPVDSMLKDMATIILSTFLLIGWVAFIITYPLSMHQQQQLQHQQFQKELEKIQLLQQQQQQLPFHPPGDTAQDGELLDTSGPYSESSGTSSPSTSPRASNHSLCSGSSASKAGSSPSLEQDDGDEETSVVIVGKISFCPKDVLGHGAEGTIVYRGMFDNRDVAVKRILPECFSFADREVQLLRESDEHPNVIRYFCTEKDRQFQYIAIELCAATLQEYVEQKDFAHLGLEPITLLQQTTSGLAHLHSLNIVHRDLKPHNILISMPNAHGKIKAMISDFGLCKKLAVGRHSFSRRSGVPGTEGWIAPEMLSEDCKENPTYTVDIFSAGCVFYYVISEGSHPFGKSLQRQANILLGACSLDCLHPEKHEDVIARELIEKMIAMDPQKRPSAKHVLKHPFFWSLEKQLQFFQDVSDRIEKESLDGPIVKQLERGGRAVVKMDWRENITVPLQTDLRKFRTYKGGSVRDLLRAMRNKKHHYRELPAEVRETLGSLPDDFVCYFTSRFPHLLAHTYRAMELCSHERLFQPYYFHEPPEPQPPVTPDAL
Summary of the method: as §1

MLTK = molecular target: T3, MLTK (Homo sapiens, UniProt Q9NYL2)
T3 construct: gene MAP3K20
T3 sequence (Q9NYL2 whole entry): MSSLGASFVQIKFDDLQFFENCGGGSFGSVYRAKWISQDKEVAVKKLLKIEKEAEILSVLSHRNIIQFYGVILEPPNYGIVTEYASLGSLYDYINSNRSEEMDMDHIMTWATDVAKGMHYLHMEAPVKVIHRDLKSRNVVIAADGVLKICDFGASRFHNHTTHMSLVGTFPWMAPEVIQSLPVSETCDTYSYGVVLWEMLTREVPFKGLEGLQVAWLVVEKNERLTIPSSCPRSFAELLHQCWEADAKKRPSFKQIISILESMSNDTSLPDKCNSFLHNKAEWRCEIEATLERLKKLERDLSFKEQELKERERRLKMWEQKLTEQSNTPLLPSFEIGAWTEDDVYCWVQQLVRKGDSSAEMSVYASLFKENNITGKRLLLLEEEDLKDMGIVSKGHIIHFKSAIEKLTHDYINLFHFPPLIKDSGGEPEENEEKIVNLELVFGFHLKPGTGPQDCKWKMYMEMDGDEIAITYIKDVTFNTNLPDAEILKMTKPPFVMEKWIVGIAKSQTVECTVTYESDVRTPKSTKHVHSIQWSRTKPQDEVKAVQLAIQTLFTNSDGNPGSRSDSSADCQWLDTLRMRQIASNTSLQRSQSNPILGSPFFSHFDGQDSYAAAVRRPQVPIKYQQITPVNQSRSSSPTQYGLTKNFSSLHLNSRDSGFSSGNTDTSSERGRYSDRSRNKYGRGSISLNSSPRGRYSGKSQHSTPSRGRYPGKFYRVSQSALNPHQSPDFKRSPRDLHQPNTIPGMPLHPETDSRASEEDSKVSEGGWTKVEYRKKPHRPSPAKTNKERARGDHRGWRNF
Summary of the method: as §1

[1] = read-out: Kinome Profiling performed by Eurofins DiscoverX / AM-1882, 1.0 µM / POC
[2] = read-out: Kinome Profiling performed by Eurofins DiscoverX / AM-5308, 1.0 µM / POC
[3] = read-out: Kinome Profiling performed by Eurofins DiscoverX / AM-0277, 1.0 µM / POC

remaining activity at 1 µM (Aurora 2; [1]): 100%
remaining activity at 1 µM (CAMK2D; [1]): 100%
remaining activity at 1 µM (CDK8; [1]): 34.5%
remaining activity at 1 µM (DMPK; [1]): 99.5%
remaining activity at 1 µM (EPHA2; [1]): 99.5%
remaining activity at 1 µM (ERN1; [1]): 100%
remaining activity at 1 µM (MLTK; [1]): 84.5%
SMILES: CC(C)(C)NS(=O)(=O)c1cccc(NC(=O)c2ccc(S(=O)(=O)NC(C)(C)C)cc2N2CCC3(CC2)CC3)c1 [AM-1882]

remaining activity at 1 µM (Aurora 2; [2]): 100%
remaining activity at 1 µM (CAMK2D; [2]): 58.5%
remaining activity at 1 µM (CDK8; [2]): 87%
remaining activity at 1 µM (DMPK; [2]): 92%
remaining activity at 1 µM (EPHA2; [2]): 92.5%
remaining activity at 1 µM (ERN1; [2]): 80%
remaining activity at 1 µM (MLTK; [2]): 100%
SMILES: C[C@@H]1CN(c2cccc(NC(=O)c3ccc(NS(=O)(=O)CCO)cc3N3CCC4(CC3)CC4)n2)CCO1 [AM-5308]

remaining activity at 1 µM (Aurora 2; [3]): 100%
remaining activity at 1 µM (CAMK2D; [3]): 91%
remaining activity at 1 µM (CDK8; [3]): 70%
remaining activity at 1 µM (DMPK; [3]): 100%
remaining activity at 1 µM (EPHA2; [3]): 80%
remaining activity at 1 µM (ERN1; [3]): 100%
remaining activity at 1 µM (MLTK; [3]): 90%
SMILES: CC(C)(CO)Nc1ccc(C(=O)Nc2cccc(S(=O)(=O)C3CCCC3)c2)c(N2CCC3(CC2)CC3)n1 [AM-0277]
